According to US20250152616A1, “COMPOSITIONS FOR AND METHODS OF TREATING, PREVENTING, AND/OR MITIGATING PAIN” (Duke University, priority 2022, published 2025):

Tests used:
[1] = test system: mouse model of stabilized unilateral tibial fracture; assay: Static weight bearing (incapacitance meter) after tibial fracture; type: in vivo; conditions: for ipsilateral weight bearing vs pre-fracture baseline: adenosine-loaded hydrogel at fracture site
Method: The aim of the experiments described herein was to examine the effectiveness of local delivery of adenosine in tibial bone injury to concurrently attenuate fracture/post-surgical pain while promoting healing. All animal work was performed in compliance with the National Institutes of Health (NIH) and institutional guidelines, and the fracture surgery and biomaterial implantation protocols approved by the Institutional Animal Care and Use Committee at Duke University (Protocol Registry Number A151-20-07) were followed. C57BL/6J mice were used to study fracture nociception and the effect of local delivery of adenosine to mitigate pain and promote bone regeneration. Lepr-cre; tdTomato reporter mice were used for tracing of LepR(+) lineage cells after fracture. To determine the effect of adenosine on pain and healing, fracture surgeries were performed and treated immediately with PEGDA-6ACA-PBA macroporous hydrogels loaded with adenosine as treatment group or without adenosine as control group (Zeng Y, et al. (2020) Adv Mater. 32:e1906022). Behavioral tests for pain and limb function were assessed by weight bearing and open field locomotion. A priori power analysis was used to estimate the sample size requiring a statistical power (1−β) of 80% at the significance level of α=5%. On the basis of the power calculation, the indicated number was 8 animals per group for fracture pain and 4 animals per group for fracture healing. Ten animals per group were used to study the effect of adenosine on fracture pain, and 5 animals per group were used to examine the effect of adenosine on fracture healing. The exclusion criteria for experiments were animals that died due to the surgical procedures or shift of the intramedullary pin identified after experimental endpoint post-mortem. No randomization was used and researchers were not blinded. Measurement of adenosine in the circulation was performed by using an adenosine assay. The in vitro functional activity of DRG neurons was assessed by calcium and membrane potential imaging and the expression of proteins were assessed by histology or immunofluorescence imaging, and gene expression by RT-qPCR. Fracture healing was analyzed by microCT and histology. The study design and timeline of animal procedures (pin placement, surgery, therapeutic intervention with and without adenosine, and behavioral tests) are illustrated in FIG. 10A (weight bearing) and FIG. 10A (open field locomotion).
In all experiments, 12-week-old to 16-week-old C57BL/6J male mice (Jackson Laboratory, Bar Harbor, ME) and Lepr-cre; tdTomato reporter mice were used. The average mouse weight was 25 grams and mice were housed in groups of four to five, and kept on a 12-hr light-dark cycle with lights off at 1800 hr. All animals had ad libitum access to chow (PMI LabDiet 5001) and water. Fracture surgeries were performed as previously described (Zeng Y, et al. (2020) Adv Mater. 32:e1906022). Animals were anesthetized by isoflurane and injected with 1 mg/kg buprenorphine SR-LAB (ZooPharm, Laramie, WY). Each mouse was then placed in a supine position with the right tibia disinfected. After skin incision and reflection, proximal to the right knee, a 0.7-mm pin was inserted from the tibial plateau through the medullary cavity to stabilize the tibia, and a cut was made at the tibial midshaft to induce a transverse fracture. Bupivacaine (0.5%; Hospira, Lake Forest, IL) at ˜1 mg/kg body weight was applied at the surgical site following wound closure using 2 reflex clips (5 mm). For animals treated with control and adenosine-loaded macroporous hydrogels, macroporous hydrogels measuring approximately 5 mm (length)×3 mm (width)×1 mm (thick) containing either 1.05±0.1 mg adenosine (ADO) or no adenosine (CTL) were implanted adjacent to the fractures immediately. […] The animals were treated with the macroporous hydrogels with or without adenosine immediately following the fracture. […]

fractured tibiae = assay: Safranin O histology of fractured tibiae; type: in vivo, mouse; conditions: 21 days post-fracture
Method: In all experiments, 12-week-old to 16-week-old C57BL/6J male mice (Jackson Laboratory, Bar Harbor, ME) and Lepr-cre; tdTomato reporter mice were used. The average mouse weight was 25 grams and mice were housed in groups of four to five, and kept on a 12-hr light-dark cycle with lights off at 1800 hr. All animals had ad libitum access to chow (PMI LabDiet 5001) and water. Fracture surgeries were performed as previously described (Zeng Y, et al. (2020) Adv Mater. 32:e1906022). Animals were anesthetized by isoflurane and injected with 1 mg/kg buprenorphine SR-LAB (ZooPharm, Laramie, WY). Each mouse was then placed in a supine position with the right tibia disinfected. After skin incision and reflection, proximal to the right knee, a 0.7-mm pin was inserted from the tibial plateau through the medullary cavity to stabilize the tibia, and a cut was made at the tibial midshaft to induce a transverse fracture. Bupivacaine (0.5%; Hospira, Lake Forest, IL) at ˜1 mg/kg body weight was applied at the surgical site following wound closure using 2 reflex clips (5 mm). For animals treated with control and adenosine-loaded macroporous hydrogels, macroporous hydrogels measuring approximately 5 mm (length)×3 mm (width)×1 mm (thick) containing either 1.05±0.1 mg adenosine (ADO) or no adenosine (CTL) were implanted adjacent to the fractures immediately. […]

In the case of Nc1ncnc2c1ncn2[C@@H]1O[C@H](CO)[C@@H](O)[C@H]1O [adenosine], the “degree of decrease in weight bearing vs untreated group” value ([1]; 2 dpf and 4 dpf) is reported as “less”, the “percent change in weight bearing from baseline” value ([1]; 2 dpf and 4 dpf) is reported as “significant decreases” and the “percent change in weight bearing from baseline” value ([1]; 8 dpf) is reported as “returned to baseline”. The “ipsilateral weight bearing vs pre-fracture baseline” value ([1]; 2 days post-fracture) was “significantly decreased”, the “ipsilateral weight bearing vs pre-fracture baseline” value ([1]; by 8 days post-fracture) was “returned back to the baseline” and the “effect size of treatment on weight bearing” value ([1]; each timepoint, effect size r) was “large effect size”. The “ipsilateral hindlimb weight bearing vs control-treated limbs” value ([1]; hydrogel with 1.05±0.1 mg adenosine implanted next to fracture, all post-fracture timepoints (2, 4, 8 dpf)) was “significantly higher”, the “callus size vs controls (histology)” value (fractured tibiae) was “smaller callus size” and the “cortical bone at fracture site vs controls (histology)” value (fractured tibiae) was “more cortical bone across the fracture site”.
